Assays:
[1] = 323.15 K, 101.33 kPa, Liquid; for speed of sound: Sing-around technique in a fixed-path interferometer; for mass density: Vibrating tube method
[2] = osmotic coefficient (dimensionless); mn = molality of the nth substance listed, in mol/kg; conditions: 323.15 K, 101 kPa, Liquid, A Knauer K-7000 vapor pressure osmometer
[3] = mn = molality of the nth substance listed, in mol/kg; conditions: 323.15 K, 101 kPa, Liquid, Vibrating tube method

CCCCCCn1cc[n+](C)c1.O=S(=O)([O-])C(F)(F)F [1-hexyl-3-methylimidazolium trifluoromethanesulfonate]
[1]
Conditions | mass density [kg/m3] | speed of sound [m/s]
– | 1217.24 | 1327.2

CCCCCCn1cc[n+](C)c1.O=S(=O)([O-])C(F)(F)F [1-hexyl-3-methylimidazolium trifluoromethanesulfonate] + CC(C)O
Conditions | mass density [kg/m3] | osmotic coefficient
[2], m1 = 0.026 | – | 0.991
[2], m1 = 0.043 | – | 0.954
[2], m1 = 0.1 | – | 0.886
[2], m1 = 0.2 | – | 0.758
[2], m1 = 0.305 | – | 0.659
[2], m1 = 0.412 | – | 0.616
[2], m1 = 0.526 | – | 0.585
[2], m1 = 0.819 | – | 0.538
[2], m1 = 1.221 | – | 0.476
[2], m1 = 1.62 | – | 0.444
[2], m1 = 2.033 | – | 0.42
[2], m1 = 2.449 | – | 0.387
[2], m1 = 2.822 | – | 0.378
[2], m1 = 3.344 | – | 0.364
[2], m1 = 3.646 | – | 0.359
[3], m1 = 0.051 | 763.8 | –
[3], m1 = 0.102 | 768.55 | –
[3], m1 = 0.152 | 773.15 | –
[3], m1 = 0.204 | 777.8 | –
[3], m1 = 0.252 | 782.08 | –
[3], m1 = 0.301 | 786.21 | –
[3], m1 = 0.355 | 790.72 | –
[3], m1 = 0.404 | 794.75 | –
[3], m1 = 0.455 | 798.81 | –
[3], m1 = 0.504 | 802.65 | –
[3], m1 = 0.606 | 810.57 | –
[3], m1 = 0.709 | 818.13 | –
[3], m1 = 0.802 | 824.81 | –
[3], m1 = 0.908 | 831.9 | –
[3], m1 = 1.012 | 838.62 | –

CCCCCCn1cc[n+](C)c1.O=S(=O)([O-])C(F)(F)F [1-hexyl-3-methylimidazolium trifluoromethanesulfonate] + CCC(C)O
Conditions | mass density [kg/m3] | osmotic coefficient
[2], m1 = 0.056 | – | 0.823
[2], m1 = 0.079 | – | 0.797
[2], m1 = 0.107 | – | 0.76
[2], m1 = 0.215 | – | 0.626
[2], m1 = 0.296 | – | 0.576
[2], m1 = 0.401 | – | 0.513
[2], m1 = 0.513 | – | 0.487
[2], m1 = 0.809 | – | 0.426
[2], m1 = 1.206 | – | 0.393
[2], m1 = 1.608 | – | 0.38
[2], m1 = 2.032 | – | 0.362
[2], m1 = 2.426 | – | 0.351
[2], m1 = 2.776 | – | 0.342
[2], m1 = 3.311 | – | 0.337
[2], m1 = 3.703 | – | 0.332
[3], m1 = 0.052 | 785.45 | –
[3], m1 = 0.102 | 789.95 | –
[3], m1 = 0.153 | 794.44 | –
[3], m1 = 0.203 | 798.75 | –
[3], m1 = 0.302 | 806.95 | –
[3], m1 = 0.352 | 810.99 | –
[3], m1 = 0.403 | 815.07 | –
[3], m1 = 0.45 | 818.65 | –
[3], m1 = 0.5029 | 822.68 | –
[3], m1 = 0.597 | 829.6 | –
[3], m1 = 0.7 | 836.92 | –
[3], m1 = 0.797 | 843.69 | –
[3], m1 = 0.907 | 850.73 | –
[3], m1 = 1.002 | 856.64 | –

CCCCCCn1cc[n+](C)c1.O=S(=O)([O-])C(F)(F)F [1-hexyl-3-methylimidazolium trifluoromethanesulfonate] + CCCCCO
Conditions | mass density [kg/m3] | osmotic coefficient
[2], m1 = 0.053 | – | 0.784
[2], m1 = 0.084 | – | 0.599
[2], m1 = 0.108 | – | 0.51
[2], m1 = 0.194 | – | 0.44
[2], m1 = 0.313 | – | 0.392
[2], m1 = 0.415 | – | 0.345
[2], m1 = 0.512 | – | 0.331
[2], m1 = 0.829 | – | 0.299
[2], m1 = 1.216 | – | 0.293
[2], m1 = 1.64 | – | 0.276
[2], m1 = 2.047 | – | 0.27
[2], m1 = 2.461 | – | 0.255
[2], m1 = 2.845 | – | 0.244
[2], m1 = 3.322 | – | 0.226
[3], m1 = 0.05 | 796.7 | –
[3], m1 = 0.1 | 801.05 | –
[3], m1 = 0.151 | 805.37 | –
[3], m1 = 0.202 | 809.6 | –
[3], m1 = 0.254 | 813.84 | –
[3], m1 = 0.3 | 817.52 | –
[3], m1 = 0.401 | 825.41 | –
[3], m1 = 0.498 | 832.62 | –
[3], m1 = 0.61 | 840.59 | –
[3], m1 = 0.705 | 847.05 | –
[3], m1 = 0.803 | 853.55 | –
[3], m1 = 0.849 | 856.48 | –
[3], m1 = 1 | 865.7 | –

CCCCCCn1cc[n+](C)c1.O=S(=O)([O-])C(F)(F)F [1-hexyl-3-methylimidazolium trifluoromethanesulfonate] + CCCCO
Conditions | mass density [kg/m3] | osmotic coefficient
[2], m1 = 0.028 | – | 0.828
[2], m1 = 0.045 | – | 0.721
[2], m1 = 0.114 | – | 0.599
[2], m1 = 0.198 | – | 0.543
[2], m1 = 0.302 | – | 0.482
[2], m1 = 0.427 | – | 0.453
[2], m1 = 0.526 | – | 0.434
[2], m1 = 0.81 | – | 0.399
[2], m1 = 1.224 | – | 0.356
[2], m1 = 1.64 | – | 0.339
[2], m1 = 2.045 | – | 0.329
[2], m1 = 2.417 | – | 0.313
[2], m1 = 2.827 | – | 0.298
[2], m1 = 3.312 | – | 0.282
[3], m1 = 0.052 | 791.18 | –
[3], m1 = 0.103 | 795.76 | –
[3], m1 = 0.152 | 799.99 | –
[3], m1 = 0.202 | 804.23 | –
[3], m1 = 0.254 | 808.45 | –
[3], m1 = 0.303 | 812.46 | –
[3], m1 = 0.353 | 816.43 | –
[3], m1 = 0.405 | 820.46 | –
[3], m1 = 0.448 | 823.73 | –
[3], m1 = 0.504 | 827.88 | –
[3], m1 = 0.598 | 834.75 | –
[3], m1 = 0.701 | 841.92 | –
[3], m1 = 0.792 | 848.08 | –
[3], m1 = 0.906 | 855.49 | –
[3], m1 = 1.01 | 861.88 | –

CCCCCCn1cc[n+](C)c1.O=S(=O)([O-])C(F)(F)F [1-hexyl-3-methylimidazolium trifluoromethanesulfonate] + CCCO
Conditions | mass density, [3] [kg/m3] | osmotic coefficient, [2]
m1 = 0.025 | – | 0.964
m1 = 0.051 | 783.95 | 0.866
m1 = 0.087 | – | 0.796
m1 = 0.102 | 788.64 | –
m1 = 0.153 | 793.14 | –
m1 = 0.214 | – | 0.685
m1 = 0.234 | 800.17 | –
m1 = 0.296 | 805.3 | –
m1 = 0.306 | 806.08 | –
m1 = 0.308 | – | 0.645
m1 = 0.355 | 810.02 | –
m1 = 0.401 | 813.72 | –
m1 = 0.411 | – | 0.585
m1 = 0.448 | 817.38 | –
m1 = 0.518 | 822.69 | 0.547
m1 = 0.62 | 830.19 | –
m1 = 0.707 | 836.34 | –
m1 = 0.804 | 843.03 | –
m1 = 0.815 | – | 0.494
m1 = 0.905 | 849.7 | –
m1 = 1.012 | 856.34 | –
m1 = 1.223 | – | 0.462
m1 = 1.614 | – | 0.427
m1 = 2.029 | – | 0.408
m1 = 2.416 | – | 0.392
m1 = 2.82 | – | 0.373
m1 = 3.493 | – | 0.361

CCCCO [butan-1-ol]
[1]
Conditions | mass density [kg/m3] | speed of sound [m/s]
– | 786.32 | 1157.3

CCC(C)O (stereo unspecified) [butan-2-ol]
[1]
Conditions | mass density [kg/m3] | speed of sound [m/s]
– | 780.4 | 1120.2

CCCCCO [pentan-1-ol]
[1]
Conditions | mass density [kg/m3] | speed of sound [m/s]
– | 792.14 | 1192.9

CCCO [propan-1-ol]
[1]
Conditions | mass density [kg/m3] | speed of sound [m/s]
– | 779.09 | 1121.8

CC(C)O [propan-2-ol]
[1]
Conditions | mass density [kg/m3] | speed of sound [m/s]
– | 758.63 | 1050.9

— the NIST ThermoML archive (doi:10.1016/j.jct.2013.09.041)
